pEC50, pIC50: −log10 of the molar value. Active and inactive are the calls of the source.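 The calls were made as follows: active = compounds giving half or more protection of infected cells from virus-caused growth loss, again on retest; inactive = the rest.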 *1 amine or outer side, *2 acyl side, *3 side chain or, on linkers, in order; H or OH if unused. Where a SMILES comes first, the peptide text is derived from it. [ ]: non-standard residue; d: D form. The star is where a group is joined. X3 = CC(=O)N(C)SCC(N[*:1])C(=O)[*:2]; X20 = CC(=O)N(C)SCC(N*)/C(O)=N\O; Cbz = O=C(OCc1ccccc1)*; Bn = c1ccc(C*)cc1; For = O=C*
System: CEM cells HIV-1 protection, formazan growth assay
Assay: NCI AIDS Antiviral Assay
Settings: for pIC50: measured here: growth of uninfected CEM cells
In short: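 Protection of CEM cells against HIV-1 measured as cell growth via soluble formazan read-out, with five concentrations tested on both infected and uninfected cells; failure to protect may reflect toxicity.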

SMILES | pEC50 | pIC50 | outcome
CC(=O)OC1C(C)OC(OC2[C@@H]3C=CO[C@@H](OC4OC(CO)C(O)C(O)C4O)[C@@H]3[C@@]3(CO)O[C@@H]23)C(OC(=O)/C=C/c2ccccc2)C1OC(=O)/C=C/c1ccccc1 (stereo partly drawn) | < 4.66 | < 4.66 | –
COc1ccc(C2=Nc3ccccc3NC(=O)C2)cc1 | < 4.43 | < 4.43 | –
CCCCCCC(=O)C/C(CCC(=O)N(Cc1ccccc1)Cc1ccccc1)=N\Nc1ccc([N+](=O)[O-])cc1[N+](=O)[O-] | < 4.91 | < 4.91 | –
COc1ccc(C2=Nc3c(nc(SC)[nH]c3=O)NC(c3ccccc3)C2)cc1 (stereo not drawn) | – | – | inactive
CS(=O)(=O)OCC1CCCCCCCCCCC12SCCCS2 (stereo not drawn) | < 3.70 | < 3.70 | –
c1ccc([P+](Cc2ccc3c(c2)OCO3)(c2ccccc2)c2ccccc2)cc1 | < 3.70 | 5.47 | –
CC(=O)N(C)SCC(NC(=O)C(Cc1ccccc1)NC(=O)OCc1ccccc1)C(=O)NC(Cc1ccccc1)C(=O)NC(Cc1cn(C=O)c2ccccc12)C(=O)NC(CCCCNC(=O)OCc1ccccc1)C(=O)NC(C(=O)NC(CSN(C)C(C)=O)/C(O)=N\O)C(C)OCc1ccccc1 (stereo not drawn) (Cbz-F[X3]FW(For)K(Cbz)T(Bn)-X20; configuration not given here) | – | – | inactive
CC(=Nc1ccc([N+](=O)[O-])cc1)c1ccc(O)cc1 | < 3.70 | 4.97 | –
CC(C)(CO)CNc1cc(=O)[nH]c(N)n1 | < 3.70 | < 3.70 | –
COc1c(C)c(C/C=C(\C)CC/C=C(\C)CC/C=C(\C)CC/C=C(\C)CCC=C(C)C)c(OC)c(OC)c1OC | < 3.70 | 4.50 | –
CCOC(=O)NC(=O)c1cn(CCCCCOC(=O)NCCCCCCNC(=O)OCCCCCn2cc(C(=O)NC(=O)OCC)c(=O)[nH]c2=O)c(=O)[nH]c1=O | – | – | inactive
COc1nc(OC)nc(Sc2ccc(Sc3ccc(Sc4nc(OC)nc(OC)n4)cc3)cc2)n1 | < 4.87 | < 4.87 | –
CCOC(=O)c1[nH]n(-c2ccccc2)c(=O)c1C=NC(=S)c1cccnc1 | < 3.70 | 4.05 | –
CCCCCCCCCCC#CCC(=O)SCCNC(=O)CCNC(=O)[C@@H](O)C(C)(C)COP(=O)(O)OP(=O)(O)OCC1OC(n2cnc3c(N)ncnc32)C(O)C1OP(=O)(O)O (stereo partly drawn) | – | – | inactive
CC1CC(C)(C)N=C(C(C)CC2CCCCC2)O1 (stereo not drawn) | < 3.70 | 4.66 | –
COc1ccc2c(c1)C(C(=O)O)CC(=O)N2C (stereo not drawn) | < 3.70 | < 3.70 | –
CC(=O)OCC1OC(SC2OC(COC(C)=O)C(OC(C)=O)C(OC(C)=O)C2OC(C)=O)C(OC(C)=O)C(OC(C)=O)C1OC(C)=O (stereo not drawn) | 4.01 | < 3.70 | –
C=CCC(C(=O)Nc1cccc2[nH]cnc12)C(=O)OCC (stereo not drawn) | < 3.70 | 3.71 | –
CC1OCC2OC(C)OC(C3C4=C(CC(C)(C)CC4=O)OC4=C3C(=O)CC(C)(C)C4)C2O1 (stereo not drawn) | < 3.25 | 3.26 | –
Cc1nc2ccc(Cl)cc2c2c1CCN2c1ccc(F)cc1 | < 3.70 | 4.94 | –
CCCN1CCC(=O)N(CCC(F)(F)C(F)(F)C(F)(F)C(F)(F)C(F)(F)C(F)(F)F)C1=S | < 4.30 | < 4.30 | –

SMILES | pEC50 | pIC50 | outcome
O=C(Nc1ccc([N+](=O)[O-])cn1)Nc1cc([N+](=O)[O-])ccc1F | < 3.70 | 4.76 | –
NC(=S)N/N=C(/CCN1CCCC1)CC(C1=C(O)C2=CCCCC2OC1=O)c1ccccc1 (stereo not drawn) | < 3.87 | < 3.87 | –
O=c1c2ccccc2n2nnc3cccc1c32 | < 4.63 | < 4.63 | –
CCOC(=O)C(=O)Nc1c(N(CC)CC)n2ccccc2nc1=O | < 3.17 | < 3.17 | –
O=C(O)C1Cc2nc[nH]c2CN1 (stereo not drawn) | – | – | inactive
COc1cccc(C=C(C#N)C#N)c1OC | < 3.70 | < 4.00 | –
Nc1ccc(OCC(O)N2C(=O)c3ccccc3C2=O)cc1 (stereo not drawn) | < 3.70 | < 3.70 | –
O=Nn1cc(-c2cc3ccccc3n2N=O)c2ccccc21 | < 3.70 | 4.01 | –
CN1C2CCC1/C(=C/c1cccc3c1OCO3)C(=O)/C2=C\c1cccc2c1OCO2 | < 5.17 | < 5.17 | –
CC(=O)Nc1ccc([As](=O)(O)O)cc1NC(C)=O | < 3.70 | 4.55 | –
CC(=O)OC1CC2C(=O)CC1(C)C2(C)C (stereo not drawn) | < 3.70 | < 3.70 | –
CC(C)=CCN1c2ccc(Cl)cc2NC(=O)CC1C (stereo not drawn) | < 4.06 | 4.31 | –
Nc1ccc(/C=C/c2ccc(N)cc2S(=O)(=O)O)c(S(=O)(=O)O)c1 | – | – | inactive
Nc1nc(N)c(Br)c(Nc2ccc(Cl)c(Cl)c2)n1 | 4.28 | 3.81 | –
COc1cc(/C=C2\C(=O)N(C(=O)Cc3ccccc3)N=C2C)ccc1O | < 4.27 | < 4.27 | –
COC(=O)c1cc(=O)n2c(sc3ccccc32)c1C(=O)c1ccccc1 | < 5.00 | < 5.00 | –
O=C1c2cccc3cc([N+](=O)[O-])cc(c23)C(=O)N1CCN1CCCC1 | < 3.70 | 7.08 | –
COC(=O)/C=C(/C(=O)OC)c1c(C)c(C)c2c(C)cc(C)cc(C)c1-2 | < 3.70 | 5.00 | –
O=c1[nH]c2ccccc2nc1/C=C/n1c(=S)[nH]c2ccccc21 | < 3.70 | < 3.70 | –
O=C(/C=C(\N=P(c1ccccc1)(c1ccccc1)c1ccccc1)C(F)(F)C(F)(F)C(F)(F)C(F)(F)C(F)(F)C(F)(F)C(F)(F)F)c1ccccc1 | < 3.70 | < 3.70 | –
Cc1ccccc1SCc1nc2ccccc2c(C)[n+]1[O-] | 4.66 | 3.99 | –

— PubChem BioAssay AID179 (DTP/NCI, 2004)
